Data published in patent publication US10058587B2, “Peptide composition for cancer treatment by inhibiting TRPV6 calcium channel activity” (priority 2008, dated 2018).
Where no end group is shown, it is not given here.

Experiments:
[1] = system: SKOV3 ovarian cancer xenografts; experiment: SKOV3 ovarian cancer xenograft, SorC13 with CAT chemotherapy (Example 26); format: in vivo, NOD/SCID mice; settings: day 12; SorC13 300 mg/kg i.p. Day 1 to 12
Procedure: SorC13 stock solutions were prepared by dissolving the appropriate amounts of the compound in physiologically buffered saline (pH 7.0 at 25° C.) to comprise a final solution to deliver 300 mg/Kg mouse. Stock solutions were prepared weekly, stored at −20° C. and diluted fresh each day for dosing. All solutions were filter sterilized with a 0.22 mu filter prior to further manipulation. The filter sterilizer units were pre-washed with a small volume of sterile distilled water. […]
To implant SKOV3 tumor cells into NOD/SCID mice, cell cultures were centrifuged to pellet the cells, the supernatant was aspirated, the cell pellet resuspended in 10 ml of growth media and the cell number was determined using a hemocytometer. […]
Tumor volumes (V) were calculated by caliper measurement using standard measurements of the width (W), length (L) and thickness (T) of tumors. […] Percentage ΔT/ΔC values, as a measure of efficacy, were determined where ΔC refers to change in volume of control or untreated tumor, and ΔT refers to change in volume of treated tumor.
Animals were intraperitoneally (i.p.) injected with the vehicular control, or the low, medium or high doses of CAT or CAT and SorC13. […] The tumor volume and body weights were measured every day. As well, general health of the animals was monitored every day.

human TRPV6b = molecular target: T1, human TRPV6b (Homo sapiens, UniProt Q9H1D0); experiment: Whole-cell patch clamp of calcium store operated current (ISOC) through TRPV6 in transfected LnCaP cells; format: cell-based
T1 construct: expressed in transfected cells; host or cells: LnCaP (ATCC CRL-1740), human lymph node prostate cancer cells
T1 sequence (Q9H1D0 41-765 limits assumed): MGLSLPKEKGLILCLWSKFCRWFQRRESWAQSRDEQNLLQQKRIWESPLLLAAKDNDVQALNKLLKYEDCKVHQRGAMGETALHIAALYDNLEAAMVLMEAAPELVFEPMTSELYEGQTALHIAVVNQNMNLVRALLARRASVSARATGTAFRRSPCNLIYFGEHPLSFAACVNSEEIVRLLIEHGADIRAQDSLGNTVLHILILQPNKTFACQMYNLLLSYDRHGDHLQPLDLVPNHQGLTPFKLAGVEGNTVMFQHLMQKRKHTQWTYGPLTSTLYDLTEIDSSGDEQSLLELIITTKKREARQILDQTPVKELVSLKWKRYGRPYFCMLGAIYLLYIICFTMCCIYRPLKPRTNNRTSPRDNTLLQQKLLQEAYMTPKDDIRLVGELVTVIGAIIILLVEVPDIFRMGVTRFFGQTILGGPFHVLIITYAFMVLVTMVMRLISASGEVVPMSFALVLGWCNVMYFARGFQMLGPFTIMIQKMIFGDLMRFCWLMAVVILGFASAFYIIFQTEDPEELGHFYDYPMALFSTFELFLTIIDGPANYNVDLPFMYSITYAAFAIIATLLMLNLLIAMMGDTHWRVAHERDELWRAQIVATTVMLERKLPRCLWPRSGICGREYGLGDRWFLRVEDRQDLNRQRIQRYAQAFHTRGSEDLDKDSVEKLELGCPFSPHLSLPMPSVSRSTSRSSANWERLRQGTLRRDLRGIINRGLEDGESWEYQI
Procedure: An expression vector (pCAGS-IRES-hTRPV6b) (Bodding et al. 2003) containing the nucleotide code for human TRPV6b was transfected into and expressed by human lymph node prostate cancer (LnCaP, ATCC CRL-1740). Patch clamping with whole-cell current acquisition was used to measure the calcium current through this channel. Cells were treated and calcium store operated current (ISOC) was measured with either SorC13 (n=90) or SorC27 (n=30) in a closed-circuit perfusion for 3 min at each of cumulative concentrations of 0 (baseline), 100 nM, 500 nM 1 uM, 30 uM and 100 uM. Washout perfusion was done at 2 mL/min for 3 min. […] Further, both C-peptides are very strong inhibitors of calcium current through the TRPV6 channel with inhibition constants in the 100 nM range.

[2] = Storage stability of solid and aqueous solution; format: physicochemical
Procedure: Additionally, the peptides have greater shelf-life stability and solution stability due to the presence of fewer sensitive disulfide bonds (soricidin has 3 disulfide bonds). The peptides of the invention optionally have no disulfide bonds. An absence of disulfide bonds provides a very long shelflife during storage under minimal refrigeration or at room temperature as a solid. Additionally when the peptides of the invention with no disulfide bonds are dissolved in water, cleavage of disulfide bonds cannot occur. […] The formation of inter-peptide S—S bonds also results in precipitation of soricidin. The peptides of the invention, such as SorC13 and SorC27, are typically stable in aqueous solution at 8° C. for at least 3 weeks with no change in purity as measured by HPLC.
“Very stable” in the above table means that there was no observable degradation of the solid peptides over 6 months. As a solution in sterile water, the peptides are typically stable for at least 3 weeks at 8° C. and at −20° C., are expected to be stable more than 1 year.

Row | Sequence | % ΔT/ΔC (tumour volume normalized to control volume) [1] [%] | Mean tumor volume [1] [mm^3] | IC50 (human TRPV6b) [nM] | Kd (human TRPV6b) [nM] | Stability in aqueous solution @ −20° C. [2] | Stability solid @ Room Temp. [2] | Stability solid @ −20° C. [2]
1 | KEFLHPSKVDLPR [SorC13, KEFLHPSKVDLPR] | 47.6 | 116.8 |  |  |  |  | 
2 | EGKLSSNDTEGGLCKEFLHPSKVDLPR [SorC27] |  |  | 140 | 140 | Very stable | Very stable | Very stable
